The structures appear in SMILES notation.

Assay [1] has as its system rats with focal permanent cerebral ischemia (MCAO). Description: Focal permanent cerebral ischemic injury (MCAO), administration from 3 h post-ischemia. The settings on record: for Number of survivors after 15 days animal: 15 enrolled; for Mortality (%): 15-day; for Neurological function score on day 15: Bederson's method; for Weight on day 1 / Weight on day 5 / Weight on day 15: mean body weight. The format is in vivo, SD rats.

The subject of assay [2] is mice injected with ellagic acid via the tail vein. Description: Effect on in vivo clotting time in mice (ellagic acid tail vein injection). The settings on record: Mus musculus, iv, 100 mg/kg i.g. for 4 days, ellagic acid i.v. 1 h after last dose, vs model group, read-out: Clotting time prolongation (%). As to the method:
The control and model groups were gavaged with distilled water, and the positive clopidogrel group, and the test substance group were gavaged orally (i.g.) with drug solution in a volume of 0.1 mL/10 g for 4 consecutive days. 1 h after the last administration, all groups were injected with 0.15 mL/10 g of 0.3% ellagic acid solution via tail vein injection except for the blank group which was injected with physiological saline: 0.1 ml/10 g. After 5 min, glass capillaries were used for blood collection through the retro-orbital venous plexus, and the appearance time of coagulation filaments was recorded by glass capillaries at 10-second intervals.
Calculation equation for prolongation of clotting time:
Prolongation of clotting time (%)=[(mean value of clotting time in blank or administered group/mean value of clotting time in model group)−1]×100%

Setting [3] is: middle and high dose groups compared with the model group.

Take `CCOC(=O)CCNC(=O)CCNc1cc(=O)n(C)c(=O)n1C` [Compound 1-1]: the results for the “Number of survivors after 15 days animal” value in assay [1] (10 mg/kg by gavage once a day), in assay [1] (20 mg/kg by gavage once a day) and in assay [1] (40 mg/kg by gavage once a day) were 8, 11 and 10, respectively. For the same molecule, the “Mortality (%)” value in assay [1] (10 mg/kg by gavage) is reported as 46.67%; in assay [1] (20 mg/kg by gavage) it was 26.67%; in assay [1] (40 mg/kg by gavage), 33.33%. The “Neurological function score on day 15” value in assay [1] (10 mg/kg) was 0.88; in assay [1] (20 mg/kg), 0.75; in assay [1] (40 mg/kg), 0.5. Also, the “Weight on day 1” value in assay [1] (10 mg/kg) was 273.73 g; in assay [1] (20 mg/kg) it was 281.93 g; in assay [1] (40 mg/kg), 274.93 g. Moreover, the “Weight on day 5” value in assay [1] (10 mg/kg) was determined as 240.73 g; in assay [1] (20 mg/kg), 253.67 g; in assay [1] (40 mg/kg) it was 288.25 g. Further, the results for the “Weight on day 15” value in assay [1] (10 mg/kg), in assay [1] (20 mg/kg) and in assay [1] (40 mg/kg) were 281.38 g, 281.10 g and 316.80 g, respectively. In addition, the “infarction rate (TTC staining)” value in assay [1] (setting [3]) was “significantly reduced”. Further, the water content entry in assay [1] (setting [3]) was “significantly reduced”. Moreover, the change in vivo at 100 mg/kg in assay [2] was determined as 43.3%.

Source of the values: patent publication US20250066310A1, “MULTI-SUBSTITUTED URACIL DERIVATIVE AND PREPARATION METHOD THEREFOR AND APPLICATION THEREOF” (HANGZHOU ADAMERCK PHARMLABS INC., priority 2021, published 2025).
